In data set [1] the test system is octopamine receptors of Sf21 cells. The data set is described as follows: Calcium fluorescence assay in Sf21 cells. It counts as cell-based. The settings on record: 100 µM. How it is done: The Sf21 insect cell line was obtained from a commercial supplier (Invitrogen, Carlsbad, CA, USA) and maintained in log phase culture in Trichoplusia ni Medium-Formulation Hink (TNM-FH) from Sigma-Aldrich (St. Louis, MO, USA), supplemented with 10% fetal bovine serum and 100 U/ml penicillin and streptomycin (Sigma-Aldrich). Cells were cultured in a non-humidified environment and maintained at 27°C. Sf21 cells were passaged every 3–5 days according to manufacturer's instructions, and maintained for about 30 passes before being replaced by fresh cells.
Sf21 cells were plated into 96-well black-wall, clear bottom plates 24 h before calcium fluorescence assay. […] The octopamine receptor antagonist phentolamine (100 µM) was co-incubated with cells for 1 h before drug challenge. Phentolamine, octopamine, and DEET were dissolved in water, while propoxur was dissolved in 100% DMSO to make a stock solution, and in the assay, DMSO was kept to 0.1%. The experiment was repeated in triplicate with different plates of cells to obtain means and SEMs for each experimental condition.

In another data set the test system is Aedes aegypti. The data set can be described thus: Topical toxicity bioassay on adult females. Particulars: for signs of intoxication: DEET lethal doses, propoxur 1 ng/insect, five minutes after treatment; for LD50 (95% CI): topical application, ng of compound/mg body weight, 24 hr. The format is in vivo. The method, then: (§1) Topical toxicity bioassays on adult female mosquitoes were performed based on the method of Pridgeon et al.. Briefly, insects were chilled on ice for 3 min, during which the appropriate volume (200 nL for mosquitoes, 1 µL for Musca) of chemical (dissolved in 95% ethanol) was applied onto the abdomen using a handheld Hamilton microapplicator. For each inhibitor, five doses were applied to groups of ten insects each and repeated three times. An ethanol-only treatment was included in each experiment as a negative control. Insects were transferred into a holding chamber post-treatment and supplied with free access to sugar water for the duration of the experiment. […] Three LD50 values were obtained and the mean LD50 value was calculated and used for statistical analysis.
(§2) For all toxicity assays, control mortality was corrected for using Abbots formula [19]; where corrected percent mortality = (% alive in control–% alive in treated) /% alive in control.

The test system of another data set is firefly light organ. The data set can be described thus: In vivo assay for effects on firefly light organ. Further details: species or system Photinus pyralis. How it is done:
Adult firefly beetles (Photinus sp.) were collected locally (Nashville, TN) and housed in well-ventilated chambers with tree leaves. The animals had free access to 10% sucrose solution. Chemicals were dissolved in absolute ethanol and 1 µL was topically applied directly to the ventral light organ with the use of a manual pipettor. Prior to DEET application, the beetles were immobilized with molten parafilm and were mounted on corrugated cardboard for the duration of the study. Due to the time required for bioactivation of CDM, insects were treated with 1 µL of CDM and were released back into the holding chamber for three hours. After three hours, they were mounted in the previously described manner and monitored for activation of the lantern. Photographs were captured with a handheld camera (Canon PowerShot SX110 IS). Pictures were captured within five minutes, four hours, and 10 minutes post application for DEET, CDM, and propoxur, respectively. DEET- and propoxur-treated insects were monitored for at least 1 hour post exposure to ensure the response was not slow acting. The original photographs were cropped and background shadows were enhanced to increase detail of the insect using Adobe Photoshop PS5 (Adobe Systems, San Jose, CA, USA). The color or brightness of the light organ was not manipulated in any way during post-processing of the image.

For data set [2], the system named is neuromuscular junction of third instar Musca domestica larvae. The data set is described as follows: Neuromuscular junction recordings of evoked EPSP in housefly larvae. The settings on record: for effect on evoked EPSP in words: toluene at 5 mM. How it is done:
Neuromuscular recordings of the evoked excitatory postsynaptic potential (EPSP) were performed on third instar housefly larvae, essentially as described previously. In short, the maggot was immobilized with pins, and the nervous and musculature systems were exposed. The preparation was then bathed in saline containing: 140 mM NaCl, 0.75 mM CaCl2, 5 mM KCl, 4 mM MgCl2, 5 mM NaHCO3, and 5 mM HEPES (pH = 7.25). The nerves were severed from the base of the CNS, which was removed, and a lateral nerve trunk innervating the longitudinal muscles was drawn into a suction electrode filled with saline. Stimuli were applied at 1 volt and of 0.2 sec duration to elicit a contraction from the longitudinal muscles. The stimulated muscle was then impaled with a recording glass capillary microelectrode filled with 1 M KCl to record effects on the evoked EPSP and membrane potential. Signals from all recordings were amplified and digitized with the use of the MacLab. Chemicals were applied to the preparation directly by hand pipetting 150 µL of solution into the bath volume of 150 µL.

The subject of another data set is rats. Further details: method as in ref 24 = [24]; 24 Macko J , Weeks M ( 1980 ) Phase 6: Acute toxicity evaluation of N,N-diethyl-meta-toluamide (M-Det.) . U.S. Army Environmental Hygiene Agency Study No.71-51-0034-81. The settings on record: oral administration to rats ref 24; cited from earlier work.
Data set [3] has as its system housefly larval central nervous system. The data set can be described thus: Neurophysiological recordings of CNS nerve discharge in housefly larvae. Particulars: Musca domestica; intact CNS; value (95% CI); read-out: EC50, excitation of nerve firing.
For the next data set, the system named is A. gambiae (AKRON). The data set can be described thus: Topical toxicity bioassay on adult females. The format is in vivo, Anopheles gambiae. The method, then:
as §1, §2

Another data set concerns A. gambiae (G3). The data set is described as follows: Topical toxicity bioassay on adult females. The format is in vivo, Anopheles gambiae. Particulars: topical application, ng of compound/mg of mosquito weight, 24 hr. How it is done: as §1, §2

As usually defined, the EC50 is the concentration needed to bring the measured effect to its halfway point.

Each structure is given as a SMILES string.

Consider `CNC(=O)Oc1ccccc1OC(C)C` [propoxur], for which the “effect on calcium fluorescence in words” value in data set [1] is on record as “no effect”. For the same compound, in the data set on Aedes aegypti, the signs of intoxication entry is given as “intense hyperexcitation in the absence of any physical stimulation” and the “LD50 (95% CI)” value was 1.4 (95% CI: 0.9–2.1) ng/mg. Moreover, the lantern illumination entry in the data set with firefly light organ (1 µg topically on light organ) is given as “no changes in lantern illumination”. In data set [2], the “effect on evoked EPSP in words” value was “no effect”.

For the compound `CCN(CC)C(=O)c1cccc(C)c1` [DEET, N, N-diethyl-meta-toluamide], the “increase in calcium fluorescence” value in data set [1] (over control cells) is recorded as “ca. 30%”. Further, the LD50 entry in the data set on rats was “ca. 3000 mg/kg”. Also, the signs of intoxication result with Aedes aegypti is “both hyperexcitatory and lethargic tendencies”. The “LD50 (95% CI)” value with Aedes aegypti was 1102 (836–1367)a ng/mg; with A. gambiae (AKRON) (topical application, ng of compound/mg of mosquito weight, 24 hr), 1472 (1136–1806)b ng/mg; with A. gambiae (G3), 1175 (988–1361)a ng/mg. Further, the lantern illumination result in the data set on firefly light organ (5 µg topically on light organ) is “Bright and complete illumination of the lantern”; in the data set on firefly light organ (1 and 2.5 µg topically on light organ), “Faint illumination in circumscribed areas of the lantern”. Further, in the data set with firefly light organ (5 µg, majority of individuals), the “period the lantern remained active” value fell in the range of 10 to 60 s. Moreover, the “interval of repeated activation of the lantern” value with firefly light organ (controls flashed every 45-90 seconds) is 10 to 20 s. Moreover, the “time to complete block” value in data set [2] (10 mM added to the bath) is “approximately 120 seconds”. Further, the “change in muscle membrane resting potential” value in data set [2] (any concentration) is given as “Little or no change”. In data set [2] (evoked EPSP, all or none response), the “concentration at which half of the preparations were blocked” value is listed as “ca. 7 mM”. Also, the “effect on evoked EPSP in words” value in data set [2] was “complete and rapid block”. The EC50 in data set [3] came to 210 µM. Also, the “LD50 (+PBO) (95% CI)” value with A. gambiae (AKRON) (topical application after 4 hr pretreatment with 200 ng PBO) was 1247 (872–1526)a ng/ml.
